In patent US5510355A, “Depolarizing skeletal muscle relaxants” (priority 1994, dated 1996):
pEC50: −log10 of the molar value. Counter-ions that a name gives are not always drawn. Like-named read-outs stand apart in the source and are kept apart here.

How the values were obtained:
[1] = test system: ganglionic-type neuronal nicotinic receptors (rat pheochromocytoma clonal line PC12); format: cell-based
Protocol: (§1) The selectivity at muscle nicotinic receptors of the various analogs described in this invention was determined by their functional efficacies and potencies at muscle and ganglionic sites.
Ganglionic effects were established on the rat pheochromocytoma clonal line PC12 which is a continuous clonal cell line of neural crest origin derived from a tumor of the rat adrenal medulla expressing ganglionic-type neuronal nicotinic receptors. […] Discussion concerning the heterogeneity of nicotinic receptors subtypes is set forth in Lukas et al., Internatl. […] See, Fornasari et al., Neurosci.
(§2) Intact cells on dishes were used for functional studies.
(§3) The medium was removed and ^86 Rb^+ was quantitated using Cerenkov detection. […] Specific ion efflux was determined as the difference in isotope efflux between total and non-specific efflux samples. Dose-response curves were plotted and the concentration resulting in half maximal activation of specific ion flux through nicotinic receptors determined for human muscle and rat ganglionic preparations (EC50).

[2] = molecular target: T1, muscle-like nicotinic receptors (human clonal line TE671/RD) (Homo sapiens, UniProt P02708+P07510+Q07001); experiment: cell-based; settings: for Emax: read-out: HUMAN MUSCLE Emax (maximal activation as percentage of that induced by acetylcholine); for potency relative to succinylcholine, in words: comparison of EC50 values with Sample No. C-2; for efficacy relative to succinylcholine, in words: comparison of Emax values with Sample No. C-2
T1 construct: these cells express muscle-like nicotinic receptors; endogenous in cells; host or cells: TE671/RD (human embryonal rhabdomyosarcoma line)
Protocol: as §1, §2, §3

[3] = human muscle, TE671/RD, 86Rb+ efflux, 4 minutes at 20° C., read-out: HUMAN MUSCLE EC50 (concentration resulting in half maximal activation of specific ion flux)
[4] = rat ganglia, PC12, 86Rb+ efflux, 4 minutes at 20° C.; read-out: RAT GANGLIA EC50 (concentration resulting in half maximal activation of specific ion flux)

T1 sequence (P07510 23-517): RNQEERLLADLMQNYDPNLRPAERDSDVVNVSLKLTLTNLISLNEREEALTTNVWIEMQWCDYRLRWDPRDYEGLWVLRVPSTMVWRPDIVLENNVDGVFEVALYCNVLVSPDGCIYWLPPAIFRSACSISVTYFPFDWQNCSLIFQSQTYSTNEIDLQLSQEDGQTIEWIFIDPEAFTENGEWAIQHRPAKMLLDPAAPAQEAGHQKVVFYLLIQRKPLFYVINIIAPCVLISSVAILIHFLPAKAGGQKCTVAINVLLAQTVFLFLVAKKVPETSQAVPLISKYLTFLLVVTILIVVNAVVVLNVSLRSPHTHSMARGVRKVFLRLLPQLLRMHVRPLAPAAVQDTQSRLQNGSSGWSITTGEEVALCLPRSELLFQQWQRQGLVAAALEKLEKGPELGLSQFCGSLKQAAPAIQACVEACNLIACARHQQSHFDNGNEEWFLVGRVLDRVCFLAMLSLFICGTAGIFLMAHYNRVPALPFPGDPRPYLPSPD
T1 sequence (P02708 21-457): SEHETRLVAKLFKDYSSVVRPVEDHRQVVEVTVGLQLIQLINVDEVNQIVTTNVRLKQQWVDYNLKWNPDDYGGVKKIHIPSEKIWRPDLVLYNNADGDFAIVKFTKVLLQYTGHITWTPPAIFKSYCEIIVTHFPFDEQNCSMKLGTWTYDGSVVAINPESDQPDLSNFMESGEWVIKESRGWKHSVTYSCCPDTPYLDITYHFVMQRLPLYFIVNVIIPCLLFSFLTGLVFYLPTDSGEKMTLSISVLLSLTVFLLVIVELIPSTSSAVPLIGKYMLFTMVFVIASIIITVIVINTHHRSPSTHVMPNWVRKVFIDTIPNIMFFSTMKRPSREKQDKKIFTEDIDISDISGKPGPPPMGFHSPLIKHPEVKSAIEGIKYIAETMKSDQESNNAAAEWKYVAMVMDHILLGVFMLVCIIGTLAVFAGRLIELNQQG
T1 sequence (Q07001 22-517): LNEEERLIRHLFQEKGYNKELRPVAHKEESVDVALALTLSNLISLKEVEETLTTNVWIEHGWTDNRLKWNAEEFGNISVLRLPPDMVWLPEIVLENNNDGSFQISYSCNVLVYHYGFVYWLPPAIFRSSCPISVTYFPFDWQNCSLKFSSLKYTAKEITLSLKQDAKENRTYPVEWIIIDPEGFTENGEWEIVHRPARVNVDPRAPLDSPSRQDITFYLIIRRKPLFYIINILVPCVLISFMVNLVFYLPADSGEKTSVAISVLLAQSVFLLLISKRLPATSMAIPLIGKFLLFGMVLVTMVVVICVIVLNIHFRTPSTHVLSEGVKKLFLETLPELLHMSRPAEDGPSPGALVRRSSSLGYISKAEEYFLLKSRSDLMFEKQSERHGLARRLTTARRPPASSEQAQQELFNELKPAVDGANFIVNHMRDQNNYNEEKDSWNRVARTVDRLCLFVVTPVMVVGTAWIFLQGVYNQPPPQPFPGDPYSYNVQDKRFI

SMILES	RAT GANGLIA Emax (maximal activation as percentage of that induced by acetylcholine) [1] [%]	Emax ([2]; TE671/RD) [%]	pEC50 [2, 3]	potency relative to succinylcholine, in words ([2]; human muscle)	efficacy relative to succinylcholine, in words ([2]; human muscle)	ganglionic effects, in words ([1]; ganglionic-type receptors)	pEC50 [1, 4]	pEC50 [2]	RAT GANGLIA Emax (maximal activation as percentage of that induced by acetylcholine) ([1]; rat ganglia, PC12, % of acetylcholine maximum) [%]	pEC50 ([1]; read-out: RAT GANGLIA EC50 (concentration resulting in half maximal activation of specific ion flux); rat ganglia, PC12, 86Rb+ efflux, 4 minutes at 20° C.)
CC(=O)OCC[N+](C)(C)C [C-1, acetylcholine, reference compound]	100	–	–	–	–	–	–	–	–	–
O=C(O)/C=C/C(=O)O.O=C(O)/C=C/C(=O)O.c1cncc(C2CC3CCN2CC3)c1 (racemic) [Sample No. 1, (+/-)-2-(3-pyridyl)-quinuclidine difumarate]	100	130	7.26	more potent	more efficacious than succinylcholine	only at relatively high concentrations	5.70	–	–	–
Fc1cncc(C2CCCN2)c1 (racemic) [Sample No. 5, (+/-)-5-fluoronornicotine]	< 10	160	4.52	at least as potent as succinylcholine	more efficacious than succinylcholine	–	–	–	–	–
CC(=O)OCC1CC2CCN1CC2.[O-][Cl+3]([O-])([O-])O (racemic) [Sample No. 4, (+/-)-2-acetoxymethylquinuclidine perchlorate]	60	200	5.52	more potent	more efficacious than succinylcholine	only at relatively high concentrations	4.30	–	–	–
Fc1cncc(C2=NCCCC2)c1 [Sample No. 2, 5-fluoroanabaseine dipicrate]	0	220	6.00	very potent relative to succinylcholine	very efficacious relative to succinylcholine	no observed ganglionic effects	–	–	–	–
C[N+](C)(C)CCOC(=O)CCC(=O)OCC[N+](C)(C)C [Sample No. C-2, succinylcholine chloride, reference compound]	0	95	4.52	–	–	–	–	–	–	–
CN1CCCC1c1cncc(Cl)c1.[O-][Cl+3]([O-])([O-])O (racemic) [Sample No. 6, (+/-)-5-chloronicotine perchlorate]	0	110	4.52	at least as potent as succinylcholine	more efficacious than succinylcholine	–	–	–	–	–
c1cncc(C2=NCCCC2)c1 [Sample No. 3, anabaseine dihydrochloride]	–	200	–	more potent	more efficacious than succinylcholine	only at relatively high concentrations	–	5.70	80	4.30
